Assay results published in PubChem BioAssay (NCI).
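Method: 48-hour compound exposure of cells in 96-well plates, five concentrations, linear interpolation of endpoints. Abbreviation: GI50, concentration required for 50% inhibition of growth. TGI is the concentration that stops growth completely.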

Legend:
Experiment in all cases: NCI anticancer screen, dose series, 48 h
NCI-H460 lung = tested on: NCI-H460 lung
COLO 205 colon = tested on: COLO 205 colon
KM12 colon = tested on: KM12 colon
EKVX NSCLC = tested on: EKVX NSCLC
SNB-75 CNS = tested on: SNB-75 CNS
SK-MEL-5 melanoma = tested on: SK-MEL-5 melanoma
NCI-H522 lung = tested on: NCI-H522 lung
SK-MEL-28 melanoma = tested on: SK-MEL-28 melanoma
MOLT-4 leukemia = tested on: MOLT-4 leukemia
RXF 393 renal = tested on: RXF 393 renal

| Structure (SMILES) | TGI (NCI-H460 lung) [µM] | TGI (COLO 205 colon) [µM] | TGI (KM12 colon) [µM] | TGI (EKVX NSCLC) [µM] | TGI (SNB-75 CNS) [µM] | TGI (SK-MEL-5 melanoma) [µM] | TGI (NCI-H522 lung) [µM] | TGI (SK-MEL-28 melanoma) [µM] | TGI (MOLT-4 leukemia) [µM] | TGI (RXF 393 renal) [µM] | GI50 (NCI-H460 lung) [µM] | GI50 (COLO 205 colon) [µM] | GI50 (KM12 colon) [µM] | GI50 (EKVX NSCLC) [µM] | GI50 (SNB-75 CNS) [µM] | GI50 (SK-MEL-5 melanoma) [µM] | GI50 (NCI-H522 lung) [µM] | GI50 (SK-MEL-28 melanoma) [µM] | GI50 (MOLT-4 leukemia) [µM] | GI50 (RXF 393 renal) [µM] |
| --- | --- | --- | --- | --- | --- | --- | --- | --- | --- | --- | --- | --- | --- | --- | --- | --- | --- | --- | --- | --- |
| Cc1ccc(C#CS(=O)(=O)C(F)(F)F)cc1 | > 100 | > 100 | > 100 | > 100 | > 100 | > 100 | > 100 | > 100 | > 100 | > 100 | – | – | – | – | – | – | – | – | – | – |
| O=C(c1ccccc1O)c1cc(-c2ncc3c(=O)c4ccccc4oc3n2)c(-c2ccccc2O)[nH]c1=O | 60.9 | > 100 | > 80 | > 92 | > 100 | 25.8 | 61.5 | 65.3 | 61.9 | 93.4 | – | – | – | – | – | – | – | – | – | – |
| N#Cc1ccc(C2Oc3ccc(Cl)cc3C=C2[N+](=O)[O-])cc1 (stereo unspecified) | 5.18 | 1.87 | 3.81 | 3.42 | 2.83 | 2.68 | 2.92 | 3.31 | 4.24 | 9.86 | – | – | – | – | – | – | – | – | – | – |
| COc1ccc([C@H]2c3cc4c(cc3OC(O)(CO)[C@H]2C(=O)O)OCO4)c(OC)c1 (stereo partly specified) (tested in a mixture with another compound) | > 100 | > 100 | > 100 | > 100 | > 100 | > 100 | – | 95.8 | > 100 | > 100 | – | – | – | – | – | – | – | – | – | – |
| COc1cc(/C(=C2/O[C@@H]([C@H]3COC(C)(C)O3)[C@H]3OC(C)(C)O[C@@H]23)c2ccc3c(c2)OCO3)cc(OC)c1OC | > 25 | > 25 | > 25 | > 25 | > 25 | > 25 | > 25 | > 25 | > 25 | > 25 | > 25 | > 25 | > 25 | > 25 | 7.13 | 13 | > 25 | 16.1 | > 25 | 6.05 |
| O=C1c2cc3c(cc2CC1Cc1ccc2c(c1)CCC2)CCC3 (stereo unspecified) | > 100 | 52.2 | > 100 | > 100 | 75.5 | > 100 | > 100 | > 100 | > 100 | > 100 | – | – | – | – | – | – | – | – | – | – |
| CCCCOc1ccc2c(c1)CC[C@@H]1[C@@H]2CC[C@]2(C)C(=O)N(CCCC)C(=O)C[C@@H]12 | > 100 | > 100 | > 100 | – | > 100 | > 100 | > 100 | – | > 100 | – | – | – | – | – | – | – | – | – | – | – |
